Assay results reported in patent US11661421B2, “Indolizine compounds, preparation method and use thereof” (HAIHE BIOPHARMA CO., LTD., priority 2018, dated 2023).
pIC50: −log10 of the molar value.

Target: T1, PRC2 complex (EZH2 Y641F/EED/SUZ12/RbAp48/AEBP2) histone methyltransferase (Homo sapiens, UniProt Q15910, Y641F)
T1 construct: purchased Cisbio
Experiment: PRC2 complex (EZH2 Y641F) activity assay, HTRF
Format: biochemical
Conditions: H3(1-50) K27me1 substrate, SAM, 4 h at room temperature, read-out: IC50 (EZH2_Y641F)
From the text: PRC2 Complex (Ezh2y641f) Activity Assay of the Compounds:
Test Method: Homogeneous Time-Resolved Fluorescence (HTRF)
Materials: PRC2 complex (EZH2 Y641F/EED/SUZ12/RbAp48/AEBP2) histone methyltransferase used in the test was purchased from Cisbio; substrate H3(1-50) K27me1 was a product of GL Biochem; methyl donor S-(5′-Adenosyl)-L-methionine chloride dihydrochloride (SAM) was purchased from Sigma-aldrich; Eu-labeled H3K27me3, Streptavidin-XL665 and the buffer used in the test were purchased from Cisbio.
Experiment method: PRC2 complex (EZH2 Y641F/EED/SUZ12/RbAp48/AEBP2), H3(1-50)me1 substrate, methyl donor SAM and the test compound were added to each well to reach a total of 10 μL reaction system and reacted in dark at room temperature for 4h. 5 μL of Eu-labeled H3K27 Me3 antibody and 5 μL of Streptavidin-XL665 were added to each well, mixed uniformly, and incubated at room temperature for 1 h. The fluorescence values at 620 nm and 665 nm were measured with a multi-label microplate analysis system (PerkinElmer Envision), and the HTRF signal ratio (665 nm/620 nm) was calculated for each well. The IC50 values of the compounds were calculated using SoftMax Pro 5.4.1 software.

T1 sequence (Q15910 whole entry Y641F): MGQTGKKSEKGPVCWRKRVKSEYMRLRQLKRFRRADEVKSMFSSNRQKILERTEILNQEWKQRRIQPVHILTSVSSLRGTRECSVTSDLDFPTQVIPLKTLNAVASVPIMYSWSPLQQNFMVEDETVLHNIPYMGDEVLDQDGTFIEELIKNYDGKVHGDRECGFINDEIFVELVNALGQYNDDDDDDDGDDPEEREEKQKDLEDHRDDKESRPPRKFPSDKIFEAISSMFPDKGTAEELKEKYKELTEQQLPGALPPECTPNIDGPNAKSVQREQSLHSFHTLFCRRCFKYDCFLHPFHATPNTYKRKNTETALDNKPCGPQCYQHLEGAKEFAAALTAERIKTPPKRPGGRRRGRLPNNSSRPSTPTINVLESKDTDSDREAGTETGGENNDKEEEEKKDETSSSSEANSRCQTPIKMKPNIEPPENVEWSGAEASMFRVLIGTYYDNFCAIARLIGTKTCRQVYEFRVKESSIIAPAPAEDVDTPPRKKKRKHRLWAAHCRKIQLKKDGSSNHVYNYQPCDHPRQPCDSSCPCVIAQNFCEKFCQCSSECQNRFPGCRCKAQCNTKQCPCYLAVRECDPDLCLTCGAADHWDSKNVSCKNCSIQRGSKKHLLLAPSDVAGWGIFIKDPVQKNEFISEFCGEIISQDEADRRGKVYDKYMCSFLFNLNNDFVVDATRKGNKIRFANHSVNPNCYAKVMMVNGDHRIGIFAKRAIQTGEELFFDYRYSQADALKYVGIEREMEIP
T1 sequence (O75530 whole entry partner): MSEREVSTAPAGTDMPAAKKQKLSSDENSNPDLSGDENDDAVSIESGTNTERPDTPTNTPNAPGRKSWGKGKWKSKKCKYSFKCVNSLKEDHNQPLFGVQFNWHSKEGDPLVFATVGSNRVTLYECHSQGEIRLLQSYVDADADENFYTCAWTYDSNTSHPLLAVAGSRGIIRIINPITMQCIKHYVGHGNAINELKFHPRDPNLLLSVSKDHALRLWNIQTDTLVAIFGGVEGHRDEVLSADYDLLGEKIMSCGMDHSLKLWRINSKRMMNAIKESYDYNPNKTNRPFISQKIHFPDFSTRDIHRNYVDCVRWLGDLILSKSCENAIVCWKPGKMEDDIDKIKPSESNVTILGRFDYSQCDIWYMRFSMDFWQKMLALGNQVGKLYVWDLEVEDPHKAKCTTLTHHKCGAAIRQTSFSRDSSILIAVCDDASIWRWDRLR
T1 sequence (Q15022 whole entry partner): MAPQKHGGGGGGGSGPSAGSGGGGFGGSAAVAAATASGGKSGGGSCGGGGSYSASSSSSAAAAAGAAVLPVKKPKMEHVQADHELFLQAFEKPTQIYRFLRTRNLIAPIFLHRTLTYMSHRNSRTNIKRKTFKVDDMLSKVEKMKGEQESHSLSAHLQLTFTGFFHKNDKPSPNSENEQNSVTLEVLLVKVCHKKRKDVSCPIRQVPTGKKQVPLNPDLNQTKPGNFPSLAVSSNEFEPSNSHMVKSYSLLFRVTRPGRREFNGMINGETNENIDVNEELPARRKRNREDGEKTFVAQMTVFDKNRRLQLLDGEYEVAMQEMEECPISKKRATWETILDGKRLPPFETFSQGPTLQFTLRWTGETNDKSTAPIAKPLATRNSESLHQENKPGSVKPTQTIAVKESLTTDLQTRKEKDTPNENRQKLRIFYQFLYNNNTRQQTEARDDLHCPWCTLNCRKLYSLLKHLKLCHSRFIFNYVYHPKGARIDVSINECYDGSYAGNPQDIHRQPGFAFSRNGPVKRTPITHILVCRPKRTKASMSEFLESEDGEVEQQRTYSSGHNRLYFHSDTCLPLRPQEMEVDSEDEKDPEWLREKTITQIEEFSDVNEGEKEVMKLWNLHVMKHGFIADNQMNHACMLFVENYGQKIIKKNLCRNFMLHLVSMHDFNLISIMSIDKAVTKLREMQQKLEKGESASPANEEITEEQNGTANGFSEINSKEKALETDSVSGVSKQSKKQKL
T1 sequence (Q09028 whole entry partner): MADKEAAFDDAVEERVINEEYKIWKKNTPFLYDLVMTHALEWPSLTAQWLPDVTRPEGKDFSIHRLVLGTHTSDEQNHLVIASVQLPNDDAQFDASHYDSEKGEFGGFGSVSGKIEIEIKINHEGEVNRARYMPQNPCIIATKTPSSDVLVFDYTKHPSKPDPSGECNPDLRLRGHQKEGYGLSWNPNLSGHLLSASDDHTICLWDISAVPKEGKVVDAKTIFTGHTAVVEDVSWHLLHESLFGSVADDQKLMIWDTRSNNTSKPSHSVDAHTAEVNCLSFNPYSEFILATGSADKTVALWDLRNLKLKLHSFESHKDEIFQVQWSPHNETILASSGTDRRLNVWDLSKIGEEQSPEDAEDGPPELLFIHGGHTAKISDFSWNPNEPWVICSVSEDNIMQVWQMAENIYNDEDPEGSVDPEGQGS
T1 sequence (Q6ZN18 whole entry partner): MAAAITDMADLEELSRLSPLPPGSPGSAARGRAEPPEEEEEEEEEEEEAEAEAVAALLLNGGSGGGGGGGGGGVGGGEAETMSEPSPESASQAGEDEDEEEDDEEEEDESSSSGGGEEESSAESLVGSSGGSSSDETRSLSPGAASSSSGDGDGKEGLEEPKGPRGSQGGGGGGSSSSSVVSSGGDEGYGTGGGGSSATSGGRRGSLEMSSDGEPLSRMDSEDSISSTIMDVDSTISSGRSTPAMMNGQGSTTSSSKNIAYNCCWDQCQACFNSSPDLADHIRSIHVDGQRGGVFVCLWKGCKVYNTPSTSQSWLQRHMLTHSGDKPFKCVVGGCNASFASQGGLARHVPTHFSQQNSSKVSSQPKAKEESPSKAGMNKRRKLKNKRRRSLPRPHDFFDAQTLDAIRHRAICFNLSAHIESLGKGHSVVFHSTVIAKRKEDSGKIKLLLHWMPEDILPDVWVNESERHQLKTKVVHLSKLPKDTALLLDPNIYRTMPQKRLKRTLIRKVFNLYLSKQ

pIC50	SMILES
7.94	CC=C(c1c(C)c(C(=O)NCc2c(OC)cc(C)[nH]c2=O)cc2c(-c3ccnc(N(C)C)c3)ccn12)N1CCOCC1 [compound 1, 1-(2-(dimethylamino)pyridin-4-yl)-N-((4-methoxy-6-methyl-2-oxo-1,2-dihydropyridin-3-yl)methyl)-6-methyl-5-(1-morpholinylpropyl-1-en-1-yl)indolizine-7-formamide]
8.31	C=C(c1c(C)c(C(=O)NCc2c(OC)cc(C)[nH]c2=O)cc2c(-c3ccc(C)nn3)ccn12)N1CCN(CC(F)(F)F)CC1 [compound 3, N-((4-methoxy-6-methyl-2-oxo-1,2-dihydropyridin-3-yl)methyl)-6-methyl-1-(6-methylpyridazin-3-yl)-5-(1-(4-(2,2,2-trifluoroethyl)piperazin-1-yl)vinyl)indolizine-7-carboxamide]
8.05	COc1cc(C)[nH]c(=O)c1CNC(=O)c1cc2c(-c3ccnc(N(C)C)c3)ccn2c(C(C)=C2CCN(CC(F)(F)F)CC2)c1C [compound 4, 1-(2-(dimethylamino)pyridin-4-yl)-N-((4-methoxy-6-methyl-2-oxo-1,2-dihydropyridine-3-yl)methyl)-6-methyl-5-(1-(1-(2,2,2-trifluoroethyl)piperidin-4-alkenylene)ethyl)indolizine-7-formamide]
8.17	CNc1cc(-c2ccn3c(C(C)=C4CCN(CC(F)(F)F)CC4)c(C)c(C(=O)NCc4c(OC)cc(C)[nH]c4=O)cc23)ccn1 [compound 5, N-((4-methoxy-6-methyl-2-oxo-1,2-dihydropyridin-3-yl)methyl)-6-methyl-1-(2-(methylamino)pyridin-4-yl)-5-(1-(1-(2,2,2-trifluoroethyl)piperidin-4-alkenylene)ethyl)indolizine-7-carboxamide]
